Measurements reported in patent publication US20170296505A1, “LONG-CHAIN CARBOXYCHROMANOLS AND ANALOGS FOR USE AS ANTI-INFLAMMATORY AGENTS” (Purdue Research Foundation, priority 2008, published 2017).
Where two headings read alike, the source gives them in different places. Blank lines part the entries; values can stand above or below the compound they belong to.

Tests used:
[1] = after γ-T supplementation; cited from earlier work
ovine COX-1 = molecular target: T1, ovine COX-1 (Ovis aries, UniProt P05979); experiment: COX-1 activity assay using purified enzyme; type: biochemical
T1 construct: purchased Cayman Chemicals (Ann Arbor, Mich.)
T1 sequence (P05979 25-600): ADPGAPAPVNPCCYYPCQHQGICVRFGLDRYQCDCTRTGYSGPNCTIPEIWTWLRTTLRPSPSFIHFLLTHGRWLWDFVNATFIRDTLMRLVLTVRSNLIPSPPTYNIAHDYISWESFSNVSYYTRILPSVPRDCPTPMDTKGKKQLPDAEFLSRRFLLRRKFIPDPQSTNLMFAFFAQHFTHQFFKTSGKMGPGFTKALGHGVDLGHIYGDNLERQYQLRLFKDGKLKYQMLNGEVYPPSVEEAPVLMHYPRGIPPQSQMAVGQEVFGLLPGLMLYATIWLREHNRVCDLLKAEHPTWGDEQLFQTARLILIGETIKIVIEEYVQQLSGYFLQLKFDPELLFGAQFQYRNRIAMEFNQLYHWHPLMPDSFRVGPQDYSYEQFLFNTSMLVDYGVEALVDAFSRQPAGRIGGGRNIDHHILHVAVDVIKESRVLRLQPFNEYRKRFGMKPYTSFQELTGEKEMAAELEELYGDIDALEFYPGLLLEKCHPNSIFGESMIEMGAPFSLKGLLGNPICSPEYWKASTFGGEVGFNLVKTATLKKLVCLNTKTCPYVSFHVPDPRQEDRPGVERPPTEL
Protocol: (§1) COX-1 and COX -2 activity assay using purified enzymes—The enzymatic reactions were performed in 0.1M Tris (pH 8.0), in the presence of 5 mM EDTA, 2 mM phenol, and 1 μM heme. […] Enzymatic reactions were initiated by addition of AA at a final concentration of 5 μM for 2 min. The reaction was stopped by addition of 0.1 M HCl. Stannous chloride in 0.1 M HCl was then added to reduce PGG2 and PGH2 to PGF2a. After addition of 0.5 vol of […] NaCl, prostaglandins formed in the reaction were extracted using 2.5 vol of ethyl acetate and the organic layer was completely dried under N2. PGF2a, and PGE2 were quantified using ELISA assays from Cayman Chemicals.

5-LOX = molecular target: T2, 5-LOX (Homo sapiens, UniProt P09917); experiment: 5-LOX activity in HL-60 cells differentiated neutrophils; type: cell-based; parameters: endogenous in cells; host or cells: HL-60 cells differentiated to neutrophils
T2 sequence (P09917 1-674): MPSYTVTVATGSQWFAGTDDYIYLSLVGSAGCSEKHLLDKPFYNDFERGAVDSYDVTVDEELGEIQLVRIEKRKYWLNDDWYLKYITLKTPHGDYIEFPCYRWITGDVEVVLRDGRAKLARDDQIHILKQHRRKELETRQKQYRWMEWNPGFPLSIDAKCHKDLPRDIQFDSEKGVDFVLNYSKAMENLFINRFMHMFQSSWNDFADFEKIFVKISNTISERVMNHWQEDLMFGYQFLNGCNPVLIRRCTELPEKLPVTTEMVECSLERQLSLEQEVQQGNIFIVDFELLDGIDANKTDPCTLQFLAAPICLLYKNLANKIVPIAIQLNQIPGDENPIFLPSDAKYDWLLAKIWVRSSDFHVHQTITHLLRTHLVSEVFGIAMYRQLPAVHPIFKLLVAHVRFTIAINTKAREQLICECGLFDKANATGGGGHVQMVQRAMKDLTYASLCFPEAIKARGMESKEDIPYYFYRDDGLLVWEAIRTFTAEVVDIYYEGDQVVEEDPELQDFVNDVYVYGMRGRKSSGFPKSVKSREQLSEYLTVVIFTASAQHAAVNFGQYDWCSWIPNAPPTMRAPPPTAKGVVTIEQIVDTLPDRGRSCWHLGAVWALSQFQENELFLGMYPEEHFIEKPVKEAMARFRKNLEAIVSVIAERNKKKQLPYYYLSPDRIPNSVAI

COX-2 [2] = molecular target: T3, COX-2 (Homo sapiens, UniProt P35354); experiment: COX-2 activity assay using purified enzyme; type: biochemical; parameters: purchased Cayman Chemicals (Ann Arbor, Mich.); IC50 in the enzyme assay: unit not given beside the values
T3 sequence (P35354 18-604): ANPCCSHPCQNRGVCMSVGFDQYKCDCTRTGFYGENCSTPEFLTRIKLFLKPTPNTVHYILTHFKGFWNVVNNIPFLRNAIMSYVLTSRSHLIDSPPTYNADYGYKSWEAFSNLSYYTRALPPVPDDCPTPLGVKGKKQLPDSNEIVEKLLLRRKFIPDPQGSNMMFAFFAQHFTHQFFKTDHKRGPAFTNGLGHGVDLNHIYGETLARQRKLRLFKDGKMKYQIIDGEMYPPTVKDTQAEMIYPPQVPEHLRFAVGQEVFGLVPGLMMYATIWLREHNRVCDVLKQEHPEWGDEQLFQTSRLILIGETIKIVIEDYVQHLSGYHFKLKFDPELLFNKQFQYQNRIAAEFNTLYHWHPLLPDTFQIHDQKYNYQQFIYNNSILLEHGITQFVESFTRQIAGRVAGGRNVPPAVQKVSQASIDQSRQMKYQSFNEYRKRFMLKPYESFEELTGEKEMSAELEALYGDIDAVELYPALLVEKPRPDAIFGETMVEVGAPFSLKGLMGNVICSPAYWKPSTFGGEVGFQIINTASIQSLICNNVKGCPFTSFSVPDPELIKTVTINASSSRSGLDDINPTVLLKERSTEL
Protocol: as §1

COX-2 [3] = molecular target: T3, COX-2; experiment: COX-2 activity in intact cells; type: cell-based; parameters: A549 cells were pre-treated with 0.5-1 ng/mL of IL-1β- for 6 hours to induce COX-2 expression; endogenous in cells
Protocol: COX-2 activity in intact cells—A549 cells were pre-treated with 0.5-1 ng/mL of IL-1β- for 6 hours to induce COX-2 expression, then incubated with fresh medium containing vitamin E farms, metabolite-containing conditioned medium or control medium for 30 min. […] The enzyme reaction was initiated by addition of 5 μM AA for 5 min, and medium was collected and immediately frozen to −20 C. PGE2 generated was measured as an index of COX-2 activity using an EIA assay from Cayman Chemicals.

[4] = test system: IL-1beta-stimulated PGE2 formation in A549 cells; experiment: IL-1beta-stimulated PGE2 formation with or without sesamin (Table 4); type: cell-based, human; conditions: IL-1beta 2 ng/ml, 8 h; 13′-COOH 2.5 uM, sesamin 1 uM
Protocol: Briefly, A549 cells were stimulated with IL-1beta (2 ng/ml) in the presence of DMSO (ctrl, 0.1%), control with sesamin (1 uM), 13′-COOH (structure 1) at 2.5 uM, 13′-COOH with sesamin (1 uM). Basal control was cells incubated with medium without IL-1beta. Eight hours later, media were collected and PGE2 was measured by ELISA.

[5] = test system: human normal CCD841CoN (CCD) colon epithelial cells; experiment: Normal colon epithelial cell viability (MTT); type: cell-based; conditions: vs. cancer cells
[6] = Metabolite levels after γ-T supplementation in rats; type: in vivo; conditions: preliminary data
Text: One important implication of our current findings is that different bioactivity among vitamin E forms may be rooted in their distinct metabolism. To this end, long-chain carboxychromanols may contribute to in vivo anti-inflammatory effect of γ-T (3-2). […] Himmelfard et al. reported that γ-T enriched but not a-T-enriched mixed tocopherol inhibited C-reactive protein and IL-6 in kidney-dialysis patients 36).

[7] = test system: colon HCT116 cancer cells; experiment: HCT116 cell growth / viability (MTT); type: cell-based, human
Protocol: FIG. 9. MTT assay data were obtained after HCT116 colon cancer cells were incubated with curcumin (Cur, 6 μM), δTE-13′-COOH (13′, 10 μM) or their combination for 72 h. *P<0.05 and ***P<0.01 indicate statistically difference between the treatments and vehicle control.
(§2) The relative cell viability as a percentage of the control was determined for control and for each concentration.
This observation supports the idea that the combination of curcumin with 13′-COOHs may offer better anticancer efficacy than either agent alone.

[8] = test system: sulfation of carboxychromanols; experiment: Sulfation of carboxychromanols; conditions: preliminary data
COX-2 [9] = molecular target: T3, COX-2; parameters: A549 cells were pre-treated with 0.5-1 ng/mL of IL-1β- for 6 hours to induce COX-2 expression; endogenous in cells; conditions: previously reported; read-out: IC50 COX-2 in A549 cells; cited from earlier work
COX-2 [10] = molecular target: T3, COX-2; experiment: COX-2 inhibition with purified human enzyme (Table 3); type: biochemical; parameters: A549 cells were pre-treated with 0.5-1 ng/mL of IL-1β- for 6 hours to induce COX-2 expression; endogenous in cells; conditions: mean±SEM
Text: Free radical biology & medicine 95, 190-199. Results are mean±SEM based on four or more independent experiments.

[11] = test system: human breast MCF-7 cancer cells; experiment: MCF-7 cell growth (MTT); type: cell-based; conditions: 5, 10, 20 μM, over 60 hours
Protocol: as §2

[12] = test system: HCT116 colon cancer cells; experiment: Apoptosis by flow cytometry; type: cell-based, human; conditions: 20 μM, 24 hours
HT29 colon cancer cells = experiment: HT-29 cell viability (MTT); type: cell-based, human
Protocol: FIG. 8. […] Relative cell viability was measured by MTT assay after cells were treated with STE-13′ at indicated concentrations and times compared with DMSO controls. […] The data are mean±SD from at least three independent experiments. *p <0.05 and **p<0.01 indicate a significant difference between treated and DMSO-control cells
Besides HT29 colon cancer cells, we also observed similar anticancer effects of δTE-13-COOH on HCT116 colon cancer cells (FIG. 4C) and MCF7 breast cancer cells (FIG. 4A).

[13] = test system: AOM/DSS-induced colon inflammation and tumorigenesis; experiment: AOM/DSS-induced colon cancer model; type: in vivo, Balb/c mice; conditions: 0.025% diet
Protocol: AOM is a carcinogen and DSS administered in drinking water causes colon inflammation that promotes colon tumorigenesis. Therefore, the AOM-DSS model represents inflammation (colitis)-promoted colon cancer. In FIG. 5A, the experimental design is shown. At day 0, AOM is administered to the Balb/c mice.

DSS-induced colitis = DSS-induced colitis model; type: in vivo, mice
[14] = at maximum concentration of 20 μM
[15] = purified enzyme, Not inhibit: 9′ at 20 μM, acetaminophen at 250 μM
[16] = intact cells, COX-2 pre-induced by IL-1β, 5 μM AA, read-out: IC50 COX-2 in A549 cells
[17] = Table 2, read-out: IC50 COX-2 activity in intact cells
[18] = purified enzyme, Not inhibit: 9′ at 20 μM, acetaminophen at 250 μM, listed as F-CEHC

SMILES: Cc1cc(O)cc2c1OC(C)(CCCC(C)CCCC(C)C(=O)O)CC2 (centres unmarked) [9′]
detection in the plasma and liver [1]: not
inhibition of COX-1 (ovine COX-1; [14]): did not inhibit
IC50 COX-1 (ovine COX-1; [15]): Not inhibit*
estimated IC50 of 5-LOX activity (5-LOX): low microM
inhibition of COX-2 (COX-2 [2]; [14]): did not inhibit
IC50 COX-2 (COX-2 [2]; [15]): Not inhibit*
IC50 (COX-2 [3]; [16]): 7 ± 2 µM

IC50 (ovine COX-1; [15]): 5 ± 2 µM
IC50 (COX-2 [2]; [15]): 4 ± 2 µM
IC50 (COX-2 [3]; [17]): 4 ± 2 µM
IC50 (COX-2 [3]; [16]): 6 ± 2 µM
amount found in feces [6]: > 100 nmol/g
SMILES: Cc1cc(O)cc2c1OC(C)(CCCC(C)CCCC(C)CCCC(C)C(=O)O)CC2 (centres unmarked) [13′, 13-(6-hydroxy-2,8-dimethylchroman-2-yl)-2,6,10-trimethyltridecanoic acid]
detection in the plasma and liver [1]: significant amounts
PGE2 [4]: 3.21 ± 0.9 ng/mL
sensitivity of normal cells (anti-proliferation, 24-h incubation) [5]: much less sensitive

SMILES: COc1cc(/C=C/C(=O)CC(=O)/C=C/c2ccc(O)c(OC)c2)ccc1O [curcumin, reference compound]
cytotoxicity at 6 µM ([7]; Homo sapiens, HCT-116, curcumin 6 μM, δTE-13′-COOH 10 μM or their combination, 72 h, read-out: reduction of colon cancer cell viability): 35%
sulfation of carboxychromanols [8]: inhibits sulfation

IC50 (ovine COX-1; [15]): 300 ± 50 µM
IC50 (ovine COX-1; [18]): 300 to 500 µM
IC50 in the enzyme assay (COX-2 [2]; assays using purified COX-1 or COX-2): > 3000/1
IC50 (COX-2 [2]; [15]): 450 ± 50 µM
IC50 (COX-2 [2]; [18]): 300 to 500 µM
SMILES: Cc1c(O)cc2c(c1C)OC(C)(CCC(=O)O)CC2 (centres unmarked) [γ-CEHC, reference compound]
IC50 (COX-2 [9]): 30 to 70 µM

IC50 (COX-2 [10]): 9.8 ± 2 µM
food intake [13]: no effect
IC50 (COX-2 [3]; [17]): 4 ± 1 µM
SMILES: C/C(=C\CC/C(C)=C/CCC1(C)CCc2cc(O)cc(C)c2O1)CC/C=C(\C)C(=O)O (centres unmarked) [δTE-13′, (2E,6E,10E)-13-(6-hydroxy-2,8-dimethylchroman-2-yl)-2,6,10-trimethyltrideca-2,6,10-trienoic acid]
cancer cell growth (MTT) [11]: dose-dependently inhibits
cells in early stage apoptosis [12]: 7.92%
cells in late stage apoptosis [12]: 22.9%
cancer cell growth (MTT) ([7]; 5, 10, 20 μM, over 60 hours): dose-dependently inhibits
reduction of colon cancer cell viability ([7]; curcumin 6 μM, δTE-13′-COOH 10 μM or their combination, 72 h): 11-12%
cancer cell growth (MTT) (HT29 colon cancer cells): dose- and time-dependent manner
body weight [13]: no effect
decrease of total tumor multiplicity ([13]; P<0.01): 34%
decrease of large polyps ([13]; P<0.05): 58%
DSS-induced inflammation (fecal bleeding) ([13]; second cycle of DSS): significantly attenuated
colitis score (DSS-induced colitis; compared to the DSS-treated control): significantly decreased colitis score
DSS-induced diarrhea and fecal bleeding (DSS-induced colitis; in diet): significantly mitigated
